Results on one sequence are retold here after patent US10578610B2, “Peptide regulators of mitochondrial fusion and methods of use” (priority 2016, dated 2020).

This assay has as its system mice subjected to cerebral ischemia. Description: Temporary middle cerebral artery (MCA) occlusion followed by reperfusion. Type of assay: in vivo. Here is the method:
Studies were done to study the effects of TetherX-1 (SEQ ID NO:24) administration on cerebral tissue damage in mice in which ischemia was induced. In this blinded and placebo-controlled studies, 40 mice were subjected to temporary (40 minutes) middle cerebral artery (MCA) occlusion followed by reperfusion for 24 hours. Brains were removed and analyzed for direct and indirect infarct area and volume. […] Moreover, TetherX-1 administration reduced cerebral deficit (FIG. 20) and cerebral swelling (FIG. 21).

Where [1] appears, read: 3 mg/kg intravenously 1 hour before ischemia and immediately prior to reperfusion, vs vehicle.
The mark [2] stands for this setting: 3 mg/kg intravenously, vs vehicle.

Ends that are not written are not given here.

Turning to “QDRLKFIDKQGELLAQDYKLRGGYGRKKRRQRRR [TAT-398-418Gly]”, the direct infarct area entry (3 mg/kg intravenously 1 hour before ischemia and immediately prior to reperfusion, 40 minutes MCA occlusion, reperfusion 24 hours, vs vehicle (water)) was “decrease”. For the same sequence, under setting [1], the direct infarct volume entry is “decrease”, the indirect infarct area result is recorded as “decrease” and the indirect infarct volume result is reported as “decrease”. For the same sequence, under setting [2], the cerebral deficit entry was “reduced” and the cerebral swelling result is listed as “reduced”.
